# Legend:
# Lemna tissues = conditions: Vesonder et al. (1992); cited from earlier work
# BMS cells = assay: Effect of FB1 and AP1 on growth of maize tissue cultured cells (Black Mexican Sweet, BMS); assay type: cell-based; conditions: for concentration at which growth of BMS cells was inhibited: 1 week, liquid culture, compared to water control wells
# Method: FB1 or AP1 at various concentrations was added to suspensions of BMS cells growing in liquid culture medium in 96-well polystyrene plates. After 1 week the cell density in wells was observed under low power magnification and growth of toxin-treated wells was compared to control wells that received water. […] This represents an approximate 100-fold difference in toxicity to maize tissue-cultured cells. […] AP1 was not tested in that study, however.
# Maize coleoptiles = assay: Effect of FB1 and AP1 on maize coleoptiles (injury evaluation); parameters: key to Injury or lack thereof of maize coleoptiles: + = brown necrotic discoloration of coleoptile; − = no symptoms (same as water control); conditions: for Injury or lack thereof of maize coleoptiles: 2 days dark at 28° C. then 3 days light
# Method: Maize coleoptiles from 4 day dark-grown germinated maize seeds were excised above the growing point and placed in 96-well microliter plates in the presence of 60 microliters of sterile distilled water containing FB1 or AP1 at approximately equimolar concentrations of 1.5, 0.5, 0.15, 0.05, 0.015, 0.005, 0.0015, or 0.0005 millimolar, along with water controls. After 2 days in the dark at 28° C. the coleoptiles were placed in the light and incubated another 3 days.
# tomato = conditions: Lamprecht et al. (1994); cited from earlier work
# maize callus = conditions: solid medium; Van Asch et al. (1992); cited from earlier work
SMILES,AP1 less toxic (than FB1) in Lemna tissues (Lemna tissues),concentration at which growth of BMS cells was inhibited (BMS cells),difference in toxicity to maize tissue-cultured cells (FB1 vs AP1) (BMS cells; AP1 less toxic than FB1),Injury or lack thereof of maize coleoptiles (Maize coleoptiles; 1.5 mM),Injury or lack thereof of maize coleoptiles (Maize coleoptiles; .0005 mM),Injury or lack thereof of maize coleoptiles (Maize coleoptiles; .0015 mM),Injury or lack thereof of maize coleoptiles (Maize coleoptiles; .005 mM),Injury or lack thereof of maize coleoptiles (Maize coleoptiles; .015 mM),Injury or lack thereof of maize coleoptiles (Maize coleoptiles; .05 mM),Injury or lack thereof of maize coleoptiles (Maize coleoptiles; .15 mM),Injury or lack thereof of maize coleoptiles (Maize coleoptiles; .5 mM),difference in toxicity between FB1 and AP1 to maize coleoptiles (Maize coleoptiles; AP1 less toxic than FB1),reduction in toxicity to tomato by AP1 versus FB1 (tomato),concentration giving significant inhibition of maize callus (maize callus)
CCCC[C@@H](C)[C@@H](O)[C@@H](O)C[C@@H](C)C[C@H](O)CCCC[C@@H](O)C[C@H](O)[C@H](C)N [AP1],approximately 40 fold,40000 nM,~100 fold,+,−,−,−,−,−,−,−,≥ 30 fold,~100 fold,
"CCCC[C@@H](C)[C@@H](OC(=O)C[C@@H](CC(=O)O)C(=O)O)[C@H](C[C@@H](C)C[C@H](O)CCCC[C@@H](O)C[C@H](O)[C@H](C)N)OC(=O)C[C@@H](CC(=O)O)C(=O)O [FB1, fumonisin B1]",,400 nM,,+,−,−,−,,+,+,+,,,1400 nM

# — patent publication US6822140B2, “Compositions and methods for fumonisin detoxification” (Pioneer Hi-Bred International, Inc., priority 1999, dated 2004)
